# From ChEMBL document CHEMBL1146821, “Pyridazines. Part 36: Synthesis and antiplatelet activity of 5-substituted-6-phenyl-3(2H)-pyridazinones” (Bioorg Med Chem Lett, 2004)
# Organism: Homo sapiens
# Assay: The antiplatelet activity by the turbidimetric method in washed human platelets using thrombin as agonist; NA is inactive; call rule not given here
# Format: functional
row,IC50,Structure (SMILES)
1,Not Active,CCOC(=O)/C=C/c1cc(=O)[nH]nc1-c1ccccc1
2,Not Active,O=c1cc(/C=C/c2ccccc2)c(-c2ccccc2)n[nH]1

# Organism: Homo sapiens
# Assay: The antiplatelet activity by the turbidimetric method in washed human platelets using thrombin as agonist; Promotes platelet aggregation.
# Format: functional
row,IC50,Structure (SMILES)
1,Promotes platelet aggregation,Oc1cc(Oc2ccccc2)c(-c2ccccc2)nn1

# Organism: Homo sapiens
# Assay: The antiplatelet activity was tested by the turbidimetric method in washed human platelets using thrombin as agonist.
# Format: functional
row,IC50,Structure (SMILES)
1,20 µM,CCOC(=O)C(=Cc1cc(=O)[nH]nc1-c1ccccc1)C(=O)OCC
2,> 1000 µM,CCOC(C#Cc1cc(O)nnc1-c1ccccc1)OCC
3,> 1000 µM,N#C/C=C/c1cc(=O)[nH]nc1-c1ccccc1
4,45 µM,COC(=O)C(=Cc1cc(=O)[nH]nc1-c1ccccc1)C(=O)OC
5,> 1000 µM,COCCOC(=O)/C=C/c1cc(O)nnc1-c1ccccc1
6,25 µM,O=C(/C=C/c1cc(=O)[nH]nc1-c1ccccc1)c1ccccc1
7,> 1000 µM,COC(=O)/C=C/c1cc(O)nnc1-c1ccccc1

# Further lines, the compound ahead of its results:
row,Structure (SMILES),IC50
1,Oc1cc(-c2ccco2)c(-c2ccccc2)nn1,635 µM
2,OCC#Cc1cc(O)nnc1-c1ccccc1,> 1000 µM
3,Cc1ccc(-c2cc(O)nnc2-c2ccccc2)cc1,152 µM
4,C#Cc1cc(O)nnc1-c1ccccc1,500 µM
5,OCCC#Cc1cc(O)nnc1-c1ccccc1,> 2000 µM
6,Oc1cc(Sc2ccccc2)c(-c2ccccc2)nn1,15 µM
7,OCCCC#Cc1cc(O)nnc1-c1ccccc1,> 1000 µM
8,O=C1C(CC[S+]([O-])c2ccccc2)C(=O)N(c2ccccc2)N1c1ccccc1 (stereo unspecified) [SULFINPYRAZONE],500 µM

# Organism: Homo sapiens
# Assay: The antiplatelet activity by the turbidimetric method in washed human platelets using thrombin as agonist; Precipitates under the conditions of the study.
# Format: functional
row,Structure (SMILES),IC50
1,O=Cc1ccc(-c2cc(O)nnc2-c2ccccc2)cc1,Precipitates under the conditions of the study
2,Oc1cc(-c2ccccc2)c(-c2ccccc2)nn1,Precipitates under the conditions of the study
3,Oc1cc(-c2ccc(Cl)cc2)c(-c2ccccc2)nn1,Precipitates under the conditions of the study
